{"source": "patent US20060062823A1", "about": "“Microtubule stabilisers for treating stenosis in stents” (priority 2002, published 2006)", "key": {"rabbit iliac stent model": {"system": "rabbit iliac stent model", "assay": "Inhibition of restenosis at 28 days in the rabbit iliac stent model", "type": "in vivo, New Zealand White rabbit", "conditions": "28 days after stenting, vs placebo", "protocol": "A.2 Inhibition of Restenosis at 28 Days in the Rabbit Iliac Stent Model\nA combined angioplasty and stenting procedure is performed in New Zealand White rabbit iliac arteries. Iliac artery balloon injury is performed by inflating a 3.0×9.0 mm angioplasty balloon in the mid-portion of the artery followed by “pull-back” of the catheter for 1 balloon length. Balloon injury is repeated 2 times, and a 3.0×12 mm stent is deployed at 6 atm for 30 seconds in the iliac artery. Balloon injury and stent placement is then performed on the contralateral iliac artery in the same manner. A post-stent deployment angiogram is performed. All animals receive oral aspirin 40 mg/day daily as anti-platelet therapy and are fed standard low-cholesterol rabbit chow. Twenty-eight days after stenting, animals are anesthetized and euthanized and the arterial tree is perfused at 100 mmHg with lactated Ringer's for several minutes, then perfused with 10% formalin at 100 mmHg for 15 minutes. The vascular section between the distal aorta and the proximal femoral arteries is excised and cleaned of periadventitial tissue. The stented section of artery is embedded in plastic and sections are taken from the proximal, middle, and distal portions of each stent. All sections are stained with hematoxylin-eosin and Movat pentachrome stains. Computerized planimetry is performed to determine the area of the internal elastic lamina (IEL), external elastic lamina (EEL) and lumen. The neointima and neointimal thickness is measured both at and between the stent struts. The vessel area is measured as the area within the EEL. Data are expressed as mean±SEM. Statistical analysis of the histologic data is accomplished using analysis of variance (ANOVA) due to the fact that two stented arteries are measured per animal with a mean generated per animal. A P<0.05 is considered statistically significant.\nAn MIA, e.g. a compound of formula 1, e.g. epothilone B is administered orally by gavage at an initial dose one day prior to stenting, then dosed at 50% of the initial dose from the day of stenting until day 27 post-stenting."}, "[1]": {"system": "rat carotid artery balloon injury model", "assay": "Inhibition of late neointimal lesion formation in the 28 day rat carotid artery balloon injury model", "type": "in vivo"}, "[2]": {"assay": "(+)-Discodermolide release from polymer coatings in plasma", "type": "physicochemical", "conditions": "coated stent pieces in citrated human plasma, 37° C., plasma changed daily", "protocol": "(§1) A stent (e.g. a Multi-Link Vision stent, Guidant Corp.; or a DRIVER stent, Medtronic Corp.) is weighed and then mounted on a rotating or other support for coating with a polymer or other synthetic or biologic carrier used as a drug reservoir. In an example of an application of one such carrier, while the stent is rotating, a 100 μl aliquot of a solution of polylactide glycolide, 0.75 mg/ml of (+)-discodermolide and 0.0015 mg/ml 2,6-di-tert-butyl-4-methylphenol dissolved in a 50:50 mixture of methanol and tetrahydrofuran, is coated onto it. The coated stent is removed from the support and allowed to air-dry. After a final weighing the amount of coating on the stent is determined.\nA.5 (+)-Discodermolide Release from Polymer Coatings in Plasma\nRelease of (+)-discodermolide in plasma can also be studied. 1 cm pieces of a coated stent are put into 1 mL of citrated human plasma (from Helena Labs.) in lyophilized form and reconstituted by adding 1 mL of sterile deionized water. Three sets of stent plasma solutions are incubated at 37° C. and the plasma is changed daily. Different assays are performed on the solution to determine the released (+)-discodermolide concentrations."}, "[3]": {"assay": "(+)-Discodermolide release from polymer coatings in aqueous solution", "type": "physicochemical", "conditions": "polylactide glycolide coated stent pieces in PBS pH 7.4 or PEG 400/water 40/60 v/v, 37° C., solutions changed daily; stable = less than 10% of variation of the release rate", "protocol": "as §1\nA.4 (+)-Discodermolide Release from Polymer Coatings in Aqueous Solution\nFour 2 cm pieces of coated stents as described above are placed into 100 mL of phosphate buffer solution (PBS) having a pH of 7.4. Another 4 pieces from each series are placed into 100 mL of polyethylene glycol (PEG)/water solution (40/60 v/v, MW of PEG=400). The stent pieces are incubated at 37° C. in a shaker. The buffer and PEG solutions are changed daily and different assays are performed on the solution to determine the released (+)-discodermolide concentrations."}, "[4]": {"conditions": "administered locally to the adventitia via catheter/Alzet minipump"}}}
{"compound": "C/C(=C\\c1csc(C)n1)[C@@H]1C[C@@H]2O[C@]2(C)CCC[C@H](C)[C@H](O)[C@@H](C)C(=O)C(C)(C)[C@@H](O)CC(=O)O1", "note": "[epothilone B]", "values": [{"measurement": "extent of restenotic lesion formation", "setting": "rabbit iliac stent model; oral gavage from one day prior to stenting until day 27", "result": "marked reduction"}, {"measurement": "lesion formation in the portions of artery immediately proximal and immediately distal to the stent", "setting": "rabbit iliac stent model; oral gavage", "result": "inhibited"}, {"measurement": "number of inflammatory cells, especially in the area surrounding the stent struts", "setting": "rabbit iliac stent model; oral gavage", "result": "significantly reduced"}, {"measurement": "infiltration of CD45+ leukocytes", "setting": "[1]; administered locally to the adventitia adjacent to the ballooned carotid via catheter/Alzet minipump, day 1", "result": "potent inhibition"}, {"measurement": "constrictive remodeling", "setting": "[1]; [4]", "result": "potent inhibition"}, {"measurement": "early (9 days post-ballooning) and late (21-31 days post-ballooning) neointimal lesions", "setting": "[1]; [4]", "result": "potent inhibition"}, {"measurement": "CD45-positive leukocyte infiltration into the vessel wall and adventitia", "setting": "[1]; rats dosed orally, daily, 1 day after balloon injury", "result": "significantly reduce"}, {"measurement": "neointimal lesion formation following balloon injury", "setting": "[1]; rats dosed orally, daily, at 9 and 12 days", "result": "significantly reduce"}]}
{"compound": "(+)-discodermolide", "values": [{"measurement": "drug release from coated stents in plasma", "setting": "[2]", "result": "stable (+)-discodermolide release"}, {"measurement": "drug release from coated stents", "setting": "[3]", "result": "stable (+)-discodermolide release"}]}
